Molecular target: AdhD (AdhD-SP) (Pyrococcus furiosus, UniProt Q8TZM9)
Experiment: NADH disappearance at […] nm, Michaelis-Menten fit
Format: biochemical
Settings: free enzyme; NADH (A340 ~1.8); 100 mM sodium phosphate pH 6.2; 50 °C

## CC(=O)C(C)O (stereo not shown) [acetoin]
  KM: The dependence of the reaction rate on acetoin followed Michaelis-Menten kinetics.

— paper PMC8859858 (Nanoscale, 2019)
